In US9629822B2, “Flavonoid based antiviral targets” (UNIVERSITY OF CENTRAL FLORIDA RESEARCH FOUNDATION, INC., priority 2012, dated 2017):
Read-outs that look alike come from different tables or passages of the source.

Key:
HIV-1 BaL = test: Anti-HIV assay (luciferase, HIV-1 BaL infection); assay type: cell-based
Outline: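 Cells infected with HIV-1 BaL at 2 ng/mL p24 (MOI approx 0.02) in compound presence. Infection read out by luciferase.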

US28 receptor = molecular target: T1, US28 receptor (Human cytomegalovirus, UniProt P69332); test: PathDetect trans Elk1 luciferase reporter gene assay in US28-transfected 293T HEK cells; assay type: cell-based, Human Cytomegalovirus (HCMV); settings: for type of activity on the US28 receptor (agonist / inverse agonist / none), in words: Elk1 reporter, US28-transfected HEK cells
T1 construct: expressed in transfected cells; host or cells: HEK 293T cells, transiently transfected
Outline: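 HEK293T cells transiently transfected with Elk1, Luc and US28 vector (empty pcDNA3 for mock) were dosed with compounds in DMEM/1% FBS with 1% DMSO for 20-24 h at 37° C. Bright-Glo luminescence decrease was read; EC50 is halfway between maximal response and no-compound control, by non-linear regression.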

[1] = TZMbI assay for cell safety (cell viability and growth, CytoTox Glo); settings: human, TZMbI cells, read-out: % decrease in viability compared to 0.1% DMSO vehicle based on viable cell luminescence
Description: Assays were performed below in accordance with the procedures set forth in The Journal of Immunology, 2006, 176, pp. 6900-905; AIDS Research and Human Retroviruses, 2004, 20:11, pp. 1157-1665.^32,33 TZMbI assays for cell safety were performed to identify potential anti-viral compounds. TZMbI assays for cell safety were performed to identify potential anti-viral compounds per the methods.

[2] = test system: mock transfected 293T HEK cells; test: PathDetect Elk1 luminescence in mock transfected (empty pcDNA3 vector) 293T HEK cells, off-target effect; assay type: cell-based, human; settings: for activation at 10 µM: Homo sapiens, read-out: Effect(%) on mock cells with each drug at 10 μM
Outline: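 HEK 293T cells were transiently transfected with PathDetect Elk1/luciferase and empty pcDNA3, then exposed to 10 μM compound in medium with 1% FBS and 1% DMSO for 20-24 h at 37 °C. BrightGlo luminescence was compared with the 1% DMSO control: % effect = 100%×(mock/DMSO) − 100%.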

[3] = 10 μM, Experiment 1B, 2 ng/mL p24 HIV-1 BaL
[4] = Human immunodeficiency virus 1, BAL, 5 μM, Experiment 2B
[5] = Human immunodeficiency virus 1, BAL, 10 μM, Experiment 1B, 2 ng/mL p24 HIV-1 BaL
[6] = Human immunodeficiency virus 1, BAL, 10 μM, Experiment 2B
[7] = Human immunodeficiency virus 1, BAL, 20 μM, Experiment 2B
[8] = 293T HEK cells transiently expressing US28, Elk1 reporter, NE = no effect when tested at 10 μM of compound
[9] = EC50 (μM), 293T HEK cells transiently expressing US28, Elk1 reporter, NE = no effect when tested at 10 μM of compound
[10] = 10 μM vs 1% DMSO control, Equation 1
[11] = Human immunodeficiency virus 1, BAL, 1.25 μM, Experiment 2B
[12] = Human immunodeficiency virus 1, BAL, 2.5 μM, Experiment 2B

T1 sequence (P69332 whole entry): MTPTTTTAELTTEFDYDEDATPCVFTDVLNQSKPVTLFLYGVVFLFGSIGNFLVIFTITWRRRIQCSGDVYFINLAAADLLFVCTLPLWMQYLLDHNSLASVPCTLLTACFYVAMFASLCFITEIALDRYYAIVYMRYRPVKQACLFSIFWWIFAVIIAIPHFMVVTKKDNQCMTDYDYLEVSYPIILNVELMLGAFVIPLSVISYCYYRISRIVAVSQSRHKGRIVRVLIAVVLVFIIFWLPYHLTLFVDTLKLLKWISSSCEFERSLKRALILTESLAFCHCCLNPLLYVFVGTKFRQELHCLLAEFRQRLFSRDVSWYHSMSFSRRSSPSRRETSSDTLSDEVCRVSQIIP

Compound | RLU (relative luciferase units) (HIV-1 BaL; 5 μM, Experiment 2B) [RLU] | RLU (relative luciferase units) (HIV-1 BaL; [3]) [RLU] | RLU (relative luciferase units) (HIV-1 BaL; 10 μM, Experiment 2B) [RLU] | RLU (relative luciferase units) (HIV-1 BaL; 20 μM, Experiment 2B) [RLU] | inhibition at 5 µM (HIV-1 BaL; [4]) [%] | inhibition at 10 µM (HIV-1 BaL; [5]) [%] | inhibition at 10 µM (HIV-1 BaL; [6]) [%] | inhibition at 20 µM (HIV-1 BaL; [7]) [%] | EC50 (US28 receptor; [9]) [µM] | cytotoxicity at 5 μM ([1]; Experiment 2A) [%] | cytotoxicity at 10 μM ([1]; Experiment 1A) [%] | cytotoxicity at 10 μM ([1]; Experiment 2A) [%] | cytotoxicity at 20 μM ([1]; Experiment 2A) [%] | activation at 10 µM [2, 10] [%] | RLU (relative luciferase units) (HIV-1 BaL; 1.25 μM, Experiment 2B) [RLU] | RLU (relative luciferase units) (HIV-1 BaL; 2.5 μM, Experiment 2B) [RLU] | inhibition at 1.25 µM (HIV-1 BaL; [11]) [%] | inhibition at 2.5 µM (HIV-1 BaL; [12]) [%] | cytotoxicity at 1.25 μM ([1]; Experiment 2A) [%] | cytotoxicity at 2.5 μM ([1]; Experiment 2A) [%] | further results
COc1ccc(Br)cc1-c1oc2ccccc2c(=O)c1O [Compound 9b, 2-(5-Bromo-2-methoxyphenyl)-3-hydroxy-4H-chromen-4-one] | 12.99 | 736.7 | 23.85 | 32.82 | -7.08 | 21.3 | -19 | -25.9 | > 10 | -7.08 | -2.1 | -19 | -25.9 | -11 | – | – | – | – | – | – | RLU (relative luciferase units) (HIV-1 BaL; 40 μM, Experiment 2B): 47.61 RLU; RLU (relative luciferase units) (HIV-1 BaL; 80 μM, Experiment 2B): 73.47 RLU; inhibition at 40 µM (HIV-1 BaL; Human immunodeficiency virus 1, BAL, 40 μM, Experiment 2B): -29.8%; inhibition at 80 µM (HIV-1 BaL; Human immunodeficiency virus 1, BAL, 80 μM, Experiment 2B): 13.3%; EC50 (US28 receptor; [8]): > 10 µM; type of activity on the US28 receptor (agonist / inverse agonist / none), in words (US28 receptor): did not show any activity; cytotoxicity at 40 μM ([1]; 40 μM, Experiment 2A): -29.8%; cytotoxicity at 80 μM ([1]; 80 μM, Experiment 2A): 13.3%
COc1ccc(Br)cc1/C=C/C(=O)c1c(O)cccc1OCc1ccccc1 [Compound 8l, (E)-1-(2-(Benzyloxy)-6-hydroxyphenyl)-3-(5-bromo-2-methoxyphenyl)prop-2-en-1-one] | 125.95 | 57.3 | 23.18 | 16.87 | 54.4 | 93.9 | 91.5 | 94.7 | – | 2.2 | 29.8 | 28.7 | 55.2 | – | 262.26 | 215.14 | -0.55 | 17.2 | -2.83 | -0.43 | IC50 (HIV-1 BaL; Human immunodeficiency virus 1, BAL, inferred from 54.36% inhibition at 5 μM): < 5 µM; EC50 (μM) (US28 receptor; [8]): Toxic; toxicity at 10 μM in HEK cells, in words ([2]; 10 μM): very toxic; Effect(%) on mock cells with each drug at 10 μM [2, 10]: Toxic
COc1ccc(Cl)cc1-c1oc2ccccc2c(=O)c1O [Compound 9h, 2-(5-chloro-2-methoxyphenyl)-3-hydroxy-4H-chromen-4-one] | 18.32 | 367.6 | 49.04 | 20.14 | -13.9 | 60.7 | 1.57 | 7.83 | 1.32 | -13.9 | 23.6 | 1.57 | 7.83 | 2 | 1.61 | 16.44 | -8.02 | -10.4 | -8.02 | -10.4 | type of activity on the US28 receptor (agonist / inverse agonist / none), in words (US28 receptor): inverse agonist; Effect(%) on mock cells with each drug at 10 μM [2, 10]: 2%
COc1ccccc1-c1cc(=O)c2c(O)cccc2o1 [Compound 12a, 5-Hydroxy-2-(2-methoxyphenyl)-4H-chromen-4-one] | 56.78 | 152.1 | 83.62 | 88.46 | 123 | 83.7 | 43 | 131 | > 10 | 123 | 44.5 | 43 | 131 | – | −3.22 | 28.09 | 6.38 | 41.7 | 6.38 | 41.7 | EC50 (US28 receptor; [8]): > 10 µM; activation at 10 µM [2]: 2%
COc1ccc(Br)cc1/C=C/C(=O)c1ccc2ccccc2c1O [Compound 8m, (E)-3-(5-bromo-2-methoxyphenyl)-1-(1-hydroxynaphthalen-2-yl)prop-2-en-1-one] | 251.02 | 437.6 | 170.42 | 160.21 | 9.04 | 53.3 | 37.7 | 49.9 | – | 10.7 | 20.3 | 38.2 | 90 | 35 | 324.10 | 283.48 | -24.3 | -9.08 | 10.3 | 17.9 | EC50 (US28 receptor; pEC50 ± SEM, 293T HEK cells transiently expressing US28, Elk1 reporter): 2.88 µM; Effect(%) on mock cells with each drug at 10 μM [2, 10]: 35%
COc1ccc(Br)cc1-c1cc(=O)c2c(O)cccc2o1 [Compound 12b, 2-(5-Bromo-2-methoxyphenyl)-5-hydroxy-4H-chromen-4-one] | −1.73 | 445.1 | 27.57 | 36.35 | -3.2 | 52.4 | 10.4 | 49.1 | > 10 | -3.2 | 34.9 | 10.4 | 49.1 | -16 | −7.32 | 0.82 | -8.84 | -2.4 | -8.84 | -2.4 | EC50 (US28 receptor; [8]): > 10 µM
